Assay results: a compilation of properties of binary mixtures (doi:10.1007/s10953-005-5594-7)

Experiment: xn = mol fraction of the nth substance listed
Details: 298.15 K, 101.3 kPa

CCCC[n+]1ccn(C)c1.F[P-](F)(F)(F)(F)F + CC(C)=O
Details | viscosity [mPa·s]
x2 = 0 | 270
x2 = 0.1147 | 137
x2 = 0.198 | 84.8
x2 = 0.2923 | 46.7
x2 = 0.4035 | 24
x2 = 0.4993 | 13.41
x2 = 0.5495 | 9.68
x2 = 0.6519 | 4.99
x2 = 0.6989 | 3.69
x2 = 0.8956 | 0.81
x2 = 0.9481 | 0.516

CCC(=O)CC + CCCC[n+]1ccn(C)c1.F[P-](F)(F)(F)(F)F
Details | viscosity [mPa·s]
x1 = 0.1088 | 137
x1 = 0.3986 | 24.26
x1 = 0.4491 | 17.94
x1 = 0.5503 | 10.02
x1 = 0.601 | 7.37
x1 = 0.6983 | 4.03
x1 = 0.8007 | 2.022
x1 = 0.9019 | 0.972
x1 = 0.948 | 0.69
x1 = 1 | 0.458

CCCC[n+]1ccn(C)c1.F[P-](F)(F)(F)(F)F + CCOC(C)=O
Details | viscosity [mPa·s]
x2 = 0 | 270
x2 = 0.0937 | 149
x2 = 0.1914 | 87.9
x2 = 0.2918 | 48.2
x2 = 0.3944 | 27.52
x2 = 0.4485 | 20.54
x2 = 0.4967 | 16.16
x2 = 0.5529 | 11.52
x2 = 0.6039 | 8.45
x2 = 0.7092 | 4.21
x2 = 0.8037 | 2.208
x2 = 0.898 | 1.083
x2 = 0.9504 | 0.699

CCCC[n+]1ccn(C)c1.F[P-](F)(F)(F)(F)F + CCC(C)=O
Details | viscosity [mPa·s]
x2 = 0 | 270
x2 = 0.0995 | 145
x2 = 0.2007 | 81.6
x2 = 0.5002 | 13.55
x2 = 0.5506 | 9.82
x2 = 0.5988 | 7.27
x2 = 0.7023 | 3.701
x2 = 0.8004 | 1.861
x2 = 0.9027 | 0.861
x2 = 0.9487 | 0.606

CC(C)=O + CCCC[n+]1ccn(C)c1.F[P-](F)(F)(F)(F)F
Details | viscosity [mPa·s]
x1 = 1 | 0.316

CCOC(C)=O + CCCC[n+]1ccn(C)c1.F[P-](F)(F)(F)(F)F
Details | viscosity [mPa·s]
x1 = 1 | 0.439

O=C1CCCC1 + CCCC[n+]1ccn(C)c1.F[P-](F)(F)(F)(F)F
Details | viscosity [mPa·s]
x1 = 0.1883 | 114.8
x1 = 0.4475 | 33.04
x1 = 0.5025 | 24.71
x1 = 0.6034 | 14.52
x1 = 0.6502 | 11.01
x1 = 0.7011 | 7.89
x1 = 0.8041 | 4.19
x1 = 0.8982 | 2.274
x1 = 0.9518 | 1.566
x1 = 1 | 1.074

CCC(C)=O + CCCC[n+]1ccn(C)c1.F[P-](F)(F)(F)(F)F
Details | viscosity [mPa·s]
x1 = 1 | 0.388

CCCC[n+]1ccn(C)c1.F[P-](F)(F)(F)(F)F + CCC(=O)CC
Details | viscosity [mPa·s]
x2 = 0 | 270
